# Laboratory results: patent publication US20200405659A1, “COMPOSITION CONTAINING 2,3-BUTANEDIOL AS ACTIVE INGREDIENT” (GS CALTEX CORPORATION, priority 2018, published 2020)
# Key:
# [1] = DPPH free radical elimination activity (anti-oxidation ratio); conditions: for change of anti-oxidation ratio with the increase of the concentration: from 0.1 wt % to 1 wt %
# Experimental: To evaluate the anti-oxidative effects of 2,3-butanediol, the elimination activity of free radicals was measured using a 2,2-diphenyl-1-picrylhydrazyl (DPPH) analysis method. Particularly, an anti-oxidation ratio was calculated by Equation 2 below.
# Anti-oxidation ratio (%)=[[(absorbance of specimen treated group−absorbance of specimen untreated group)/(absorbance of negative control group−absorbance of specimen untreated group)]×100 [Equation 2]
# i) specimen untreated group: group allowing reaction of ultrapure water and methanol
# ii) specimen treated group: group allowing reaction of specimen by each concentration and DPPH
# iii) negative control group: group allowing reaction of ultrapure water and DPPH
# According to the concentration shown in Table 2 below, diols were diluted with a methanol solvent to prepare specimens, and each specimen was reacted with DPPH, and absorbance was measured, and the anti-oxidation ratios calculated are shown in Table 2 below.
# [2] = test system: collagenase (MMP-1); assay: Collagenase (MMP-1) content in CCD-986SK cells (Human MMP-1 ELISA kit); type: cell-based; conditions: for Collagenase (MMP-1)(pg/mL) / MMP-1 content relative to untreated control (%): 48 hours; for MMP-1 content relative to untreated control (%): specimen-free = 100.00, decreased percent means collagenase restrained; for restraining effects of collagenase: compared with the Comparative Examples using 1,3-butanediol or 1,3-propanediol
# Experimental: The anti-wrinkle effects of 2,3-butanediol were evaluated as the restraining effects of the decomposition of interstitial collagen, etc., by decreasing skin collagenase (for example, MMP-1).
# To evaluate the anti-wrinkle effects of 2,3-butanediol, serum-free mediums composed of 99 mL of Dulbecco's modified eagle medium (Gibco) and 1 mL of Penicillin-streptomycin (Gibco), diluted with 2R,3S-butanediol, 2R,3R-butanediol, 1,3-butanediol and 1,3-propanediol in the concentrations shown in Table 3 below, were prepared.
# In addition, cells CCD-986SK (ACTT CRL-6323™) were seeded in well plates by 1 mL with 5×10^4, and cultivated at 37° C. in a 5% CO2 cultivator for 24 hours. The cultivated cells were replaced with the mediums of the Examples and Comparative Examples and cultivated at 37° C. in a 5% CO2 cultivator for 48 hours.
# A cell dissolution material was recovered, the protein content was measured using BSA protein assay reagent kit (Thermo scientific PIERCE, USA), the collagenase (MMP-1) content was measured suing Human MMP-1 ELISA kit (Sigma), and the results are shown in Table 4 below.
# That is, the decreased percent calculated means that collagenase is effectively restrained.
SMILES,Anti-oxidation ratio (%) ([1]; 0.1 wt % in methanol),Anti-oxidation ratio (%) ([1]; 0.5 wt % in methanol),Anti-oxidation ratio (%) ([1]; 1.0 wt % in methanol),change of anti-oxidation ratio with the increase of the concentration [1],Collagenase (MMP-1)(pg/mL) ([2]; 0.50 wt % in serum-free medium),MMP-1 content relative to untreated control (%) ([2]; 0.50 wt %),Collagenase (MMP-1)(pg/mL) ([2]; 0.05 wt % in serum-free medium),MMP-1 content relative to untreated control (%) ([2]; 0.05 wt %),Collagenase (MMP-1)(pg/mL) ([2]; 0.10 wt % in serum-free medium),MMP-1 content relative to untreated control (%) ([2]; 0.10 wt %),Collagenase (MMP-1)(pg/mL) ([2]; 1.00 wt % in serum-free medium),MMP-1 content relative to untreated control (%) ([2]; 1.00 wt %),restraining effects of collagenase [2],production of collagenase ([2]; concentration of 1 wt %)
"CC(O)CCO (stereo not shown) [1,3-butanediol]",2.89,1.46,1.00,rather decreased,569.1,90.82,,,,,,,,
"OCCCO [1,3-propanediol]",5.34,2.17,−1.23,rather decreased,602.9,94.23,,,,,,,,
"C[C@@H](O)[C@@H](C)O [2R,3R-butanediol]",,,,,327.7,50.73,390.9,56.16,443.0,63.45,159.1,27.29,markedly increased,markedly reduced
"C[C@H](O)[C@@H](C)O [2R,3S-butanediol]",2.23,3.95,,increased,324.2,56.69,370.2,60.78,364.7,59.80,321.4,62.63,markedly increased,
